Literature values in US8680293B2, “Substituted CC-1065 analogs and their conjugates” (Syntarga B.V., priority 2007, dated 2014).

Conditions: reason it could not be used in the clinic

## COc1c(O)c2c(c3cc(C(=O)N4CCc5c4c(O)c(OC)c4[nH]c(C(=O)N6CC7CC78C6=CC(=O)c6[nH]cc(C)c68)cc54)[nH]c13)CCN2C(N)=O (stereo not shown) [CC-1065]
  hepatotoxicity: serious delayed hepatotoxicity
